Experiments:
Format in all cases: cell-based
[1] = system: pancreatic cancer cell line SW-1990; assay: Rapid one hour CellTiter-Glo ATP screening in L15 (FIG. 30); settings: for effectiveness by POC (FIG. 30): L15 media, one hour CTG, at least one concentration level
From the text: [The source words this procedure for another cell line and reports this cell line under the same test.] (§1) When used to identify compounds for specific patients, the following steps will be carried out: • Individualized patient cells will be acquired from a tumor biopsy and cultured/grown in patient blood serum and/or plasma. (In most instances the cells will be obtained using a needle biopsy; i.e. fine needle aspiration biopsy. Optionally, the cells may be obtained from resected tumor (i.e. excisional biopsy, which is an attempt at complete tumor removal), and/or a core biopsy; (i.e. removal of part of the tumor). Alternatively, cells may be obtained from blood draw samples, which would contain leukemia, lymphoma and myeloma cells.) • The cells (as few as 100 cells per experiment) will be screened directly in patient blood serum and/or plasma in the absence or presence of glycolysis inhibitor, 2-deoxyglucose (2DG) using a rapid (1-2 hr) screening assay (CellTiter-Glo, or “CTG”). • NOTE: while the discussion herein focuses on CTG, other assays suitable for measuring changes in ATP levels will perform equally as well. […] DMEM contains glucose, but L15 has substituted glucose with galactose. This means that in DMEM, 2DG is added to inhibit glycolysis; but in L15, the addition of 2DG is unnecessary to achieve the same result as the lack of glucose in L15 precludes access to the metabolic pathway that would utilize glucose. […] The compounds identified with compound numbers 140-161 as depicted in FIGS. 11 and 12 were tested in this manner. NOTE: compound number 141 is Gramicidin, also known as Gramicidin D. This antibiotic is identified by CAS number 1393-88-0. • The rapid screening assay provides evidence of unexpected drug activity for known drugs against cancer cell lines. Thus, the screening of FDA-approved drugs for synergistic activity with metabolic inhibitors can provide anticancer drugs from drugs currently used for other purposes.
(§2) The data presented in FIGS. 16-33 was developed using compounds 140-161 as depicted in FIGS. 11 and 12. […]

lung cancer cells A549 = assay: Rapid one hour CellTiter-Glo ATP screening (FIGS. 16-18, 21-24); settings: for effectiveness by POC (FIG. 17): 10-30 μM; for effectiveness by POC (FIG. 24): L15 media
From the text: as §1
The data presented in FIGS. 16-33 was developed using compounds 140-161 as depicted in FIGS. 11 and 12. The graphs of FIGS. 16-33 provide a direct comparison of the rapid screening method wherein the tests were carried out over one hour (CTG) using Dulbecco's Modified Eagle Medium (DMEM), […] 2DG and L15 media (described below), a cell media that is missing glucose; the equivalent to DMEM plus 2DG. Compounds 140-161 were screened against lung cancer cells designated A549. Similar results are obtained in most cases, but a few examples show significant enhancement of activity in L15. As used in the discussion below, Rot=rotenone, and 2DG+Rot=a positive control (ATP should be inhibited to a high degree).
FIG. 16 provides a comparison of DMEM and L15 media at 50-200 μM. After one hour of exposure and assessment of the ATP values using CellTiter-Glo assay, the “percent of control” (POC) value is determined with respect to the DMSO control. As reflected by FIG. 16, the following compounds, at the indicated concentrations, would be considered effective against the cancer cells of line A549: 140, 142, 149, 150, 155, 156, 159, 160, 161. The same compounds were tested at 10-30 μM with the results depicted in FIG. 17. At these concentrations, the following compounds would be considered effective at least one concentration level: 141, 155, 156, 159, 160.
FIG. 18 provides a comparison of DMEM with 10 mM 2DG with the compounds of interest at concentrations of 50 to 200 μM and 10 to 30 μM to L15 Media with the compounds of interest at concentrations of 50 to 200 μM and 10 to 30 μM. The compounds were tested against the same cancer cell line with one hour of exposure and CTG assay with POC reported against a DMSO control. Under the reported conditions the following compounds would be considered to have effectiveness in treating the cancer cell line at least one concentration level: 140, 141, 149, 155, 156, 159, 160, 161.
FIGS. 21 and 22 provide test data developed using the rapid testing method described above. […]

[2] = system: pancreatic cancer cell line CFPAC-1; assay: Rapid one hour CellTiter-Glo ATP screening in L15 (FIG. 31)
From the text: [The source words this procedure for another cell line and reports this cell line under the same test.] (§3) When used to identify compounds for specific patients, the following steps will be carried out: • Individualized patient cells will be acquired from a tumor biopsy and cultured/grown in patient blood serum and/or plasma. (In most instances the cells will be obtained using a needle biopsy; i.e. fine needle aspiration biopsy. Optionally, the cells may be obtained from resected tumor (i.e. excisional biopsy, which is an attempt at complete tumor removal), and/or a core biopsy; (i.e. removal of part of the tumor). Alternatively, cells may be obtained from blood draw samples, which would contain leukemia, lymphoma and myeloma cells.) • The cells (as few as 100 cells per experiment) will be screened directly in patient blood serum and/or plasma in the absence or presence of glycolysis inhibitor, 2-deoxyglucose (2DG) using a rapid (1-2 hr) screening assay (CellTiter-Glo, or “CTG”). • NOTE: while the discussion herein focuses on CTG, other assays suitable for measuring changes in ATP levels will perform equally as well. […] DMEM contains glucose, but L15 has substituted glucose with galactose. This means that in DMEM, 2DG is added to inhibit glycolysis; but in L15, the addition of 2DG is unnecessary to achieve the same result as the lack of glucose in L15 precludes access to the metabolic pathway that would utilize glucose. […]

MCF7 and MCF10A = assay: Comparison of cancerous and non-cancerous cells (FIG. 33); settings: 10 μM to 30 μM
Protocol: FIG. 33 compares the impact of compounds 140-161 on breast cancer cell line MCF7 and non-cancerous […] cells MCF10A. All compounds tested were in the range of 10 μM to 30 μM.

[3] = system: ovarian cancer cell line HeLa; assay: Rapid one hour CellTiter-Glo ATP screening in L15 (FIG. 28); settings: for effectiveness by POC (FIG. 28): L15 media, one hour CTG, at least one concentration level
From the text: [The source words this procedure for another cell line and reports this cell line under the same test.] as §1, §2

[4] = system: breast cancer cell line MCF7; assay: Rapid one hour CellTiter-Glo ATP screening in L15 (FIG. 29); settings: for effectiveness by POC (FIG. 29): L15 media, one hour CTG, at least one concentration level
From the text: [The source words this procedure for another cell line and reports this cell line under the same test.] as §1, §2

[5] = system: A549, NCI H196 and MCF10A; assay: Comparison of effectiveness between cell lines (FIG. 27); settings: 50 μM to 200 μM, L15, one hour CTG
Protocol: FIG. 27 provides a comparison of the effectiveness of the compounds against A549, NCI H196 and MCF10A at concentrations in the range of 50 μM to 200 μM.

[6] = Rapid one hour CellTiter-Glo ATP screening in L15 (FIG. 26); settings: MCF10A; L15 media; one hour CTG; at least one concentration level
[7] = system: lung cancer cell line NCI H196; assay: Rapid one hour CellTiter-Glo ATP screening in L15 (FIG. 25); settings: L15 media, one hour CTG, at least one concentration level
From the text: [The source words this procedure for another cell line and reports this cell line under the same test.] as §3

[8] = DMEM and L15 media, one hour, at least one concentration level
[9] = 1-8 μm, 10-30 μM and 50-200 μM, one hour CTG, at least one concentration level

Row | Compound | effectiveness against pancreatic cancer (FIG. 30) ([1]; 145 μM, L15) | effectiveness by POC (FIG. 30) [1] | effectiveness (FIG. 23) (lung cancer cells A549; 145 μM in L15) | effectiveness by POC (FIG. 17) (lung cancer cells A549; [8]) | effectiveness by POC (FIG. 16) (lung cancer cells A549; DMEM and L15 media, 50-200 μM, one hour, CellTiter-Glo, DMSO control) | effectiveness by POC when combined with 2DG (FIG. 22) (lung cancer cells A549; DMEM with 10 mM 2DG, 1-8 μm, 10-30 μM and 50-200 μM, one hour CTG, at least one concentration level) | effectiveness by POC (FIG. 24) (lung cancer cells A549; [9]) | effectiveness against pancreatic cancer (FIG. 31) ([2]; 145 μM, L15) | effectiveness by POC (FIG. 31) ([2]; L15 media, one hour CTG, at least one concentration level) | impact on cancerous versus non-cancerous cells (FIG. 33) (MCF7 and MCF10A) | effectiveness against ovarian cancer (FIG. 28) ([3]; 145 μM, L15) | effectiveness by POC (FIG. 28) [3] | effectiveness against breast cancer (FIG. 29) ([4]; 145 μM, L15) | effectiveness by POC (FIG. 29) [4] | subtype specificity (FIG. 27) [5] | effectiveness by POC (FIG. 26) [6] | effectiveness by POC (FIG. 25) [7]
1 | CN(C)CCCOc1nn(Cc2ccccc2)c2ccccc12 [Compound 156, benzydamine] | effective | likely effective | unexpected effectiveness | effective | effective | effective | likely to be effective | effective | likely effective | significantly more impact on the cancerous cells | effective | likely effective | effective | likely effective | subtype specificity | likely effective | 
2 | Gramicidin [Compound 141] |  | likely effective |  | effective |  |  | likely to be effective |  |  |  |  | likely effective |  | likely effective | subtype specificity | likely effective | likely effective

Source: patent publication US20250093329A1, “SCREENING OF COMPOUNDS” (THE UNIVERSITY OF TULSA, priority 2022, published 2025)
